Measurements from patent publication EP3666770A1, “NOVEL HETEROCYCLIC COMPOUNDS AS CDK8/19 INHIBITORS” (Joint Stock Company "Biocad", priority 2017, dated 2019).
Read-outs that look alike come from different tables or passages of the source.

Experiments:
[1] = Chemical stability in simulated gastric fluid (SGF); assay type: physicochemical; details: SGF without enzymes, pH=1,4; 10 µm; 2 hours at 37°C; substance amount in % after thermostatting
Protocol: (§1) Chemical stability of the compounds described herein was determined in simulated gastric fluid and human blood plasma.
SGF concentrate without enzymes, pH=1,4 (Sigma Ireland, cat#01651) was used as simulated gastric fluid. Initial candidate solution (10 mM in DMSO) was diluted with an SGF working solution to a concentration of […] (test solution). The test solution was incubated in a dry block thermostat for 2 hours at 37°C. HPLC with Agilent 1200 liquid chromatography system (Agilent, USA) was employed to determine peak areas of the compounds in test samples, said peak areas corresponding to the initial test time (prior to incubation) and the final test time (after incubation in a dry block thermostat for 2 hours at 37°C). Chromatographic analysis was performed in a gradient elution regime with a flow rate of 1 mL/min. Substance amount in % in a sample after thermostatting was determined.

[2] = Chemical stability in human blood plasma; assay type: in vitro ADME; details: pooled human blood plasma; 10 µM; 4 hours at 37°C; substance amount in % after thermostatting
Protocol: as §1
Determination of stability in human blood plasma was performed using pooled human blood plasma taken from ten healthy donors. The initial candidate solution (10 mM in DMSO) was diluted with pooled blood plasma to a concentration of […] (test solution). The test solution was incubated in a dry block thermostat for 4 hours at 37°C. HPLC with Agilent 1200 liquid chromatography system (Agilent, USA) was employed to determine peak areas of the compounds in test samples, said peak areas corresponding to the initial test time (prior to incubation) and the final test time (after incubation in a dry block thermostat for 4 hours at 37°C), proteins were preliminarily precipitated with acetonitrile. Chromatographic analysis was performed in a gradient elution regime with a flow rate of 1 mL/min. Substance amount in % in a sample after thermostatting was determined.

[3] = Enzyme stability in human liver microsomes; assay type: in vitro ADME; details: pH 7.4; 0,5 mg/mL pooled human liver microsomes; 10 µM compound; 37°C; pH=7,4
Protocol: Measuring of candidates' enzyme stability enabled estimation of the stability of the present compounds towards the action of enzymes in liver microsomes.
Enzyme degradation rate was measured by incubating the reaction mixture in a dry block thermostat at 37°C, said reaction mixture comprising 0,5 mg/mL of pooled human liver microsomes (XenoTech, USA, cat#H2620), 10 µM compound, 2 mM β-nicotinamide adenine dinucleotide (Carbosynth, UK, cat#NN10871) and 4 mM magnesium chloride in 0,1 M sodium-phosphate buffer, pH=7,4. The reaction was quenched with acetonitrile (100 µL of acetonitrile / 100 µL of the reaction mixture). After quenching, the samples were centrifuged at 10000 rpm for 10 minutes. Supernatant fluid was tested by chromatographic technique using Agilent1200 (Agilent, USA). Chromatographic analysis was performed in a gradient elution regime with a flow rate of 1 mL/min. A graph of the logarithm of substance's peak area as a function of time was made. The dependent factor of the line corresponded to the elimination rate constant K based on which the drug's half-life t1/2 and degradation rate CLint were calculated: Elimination rate constant (k) = (−gradient) [formula] [formula] V(μL/mg) = (volume of incubation(μL))/(protein in the incubation(mg)) [formula] [formula]

MV4-11 = test: Cell-based antiproliferative test (AlamarBlue), MV4-11; details: Homo sapiens, MV4-11, 120 h, read-out: MV-4-11 IC50, mkM
Protocol: Antiproliferative activity of CDK8 inhibitors according to the present invention was measured in a cell-based test on continuous cell cultures MV4-11 (biphenotypic myelomonocytic leukemia, ATCC® CRL-9591™), KG-1 (acute myeloid leukemia, ATCC® CCL-246™), HL-60 (acute promyelocytic leukemia, ATCC® CCL-240™) using a vital stain AlamarBlue (ThermoFisher, #DAL1100). The cells were grown in RPMI-1640 (PanEco, #C330p) medium with addition of 10% FBS (Gibco, #16140-071); washed and resuspended in culture medium with 10% FBS (Gibco, #16140-071) in 96-well culture plates (Corning, #3599) with ≈ 10 ×10^3 cells in […] of medium per well. The compounds in question were dissolved in DMSO and diluted with a medium with 10% FBS (Gibco, #16140-071) to a final concentration ranging form 0 to 100 µM. […] of diluted compounds were then added to each well (final DMSO concentration was less than 1%) and incubated under 5% CO2 atmosphere at 37°C for 120 h. After incubating, 15 µL of AlamarBlue (ThermoFisher, #DAL1100) reagent was added per well, contents of plates were mixed in an orbital shaker (Biosan, Latvia) and further incubated for 3-5 h at 37°C under 5% CO2 atmosphere. Number of living cells was estimated using a microplate spectrophotometer (Tecan Infinite M200Pro, Switzerland) measuring fluorescent signal at the excitation wavelength (λEx) of 540 nm and emission wavelength (λEm) of 590 nm.
IC50 was calculated using Magellan 7.2 software (Tecan, Switzerland) approximating experimental points by four-parameter logistic model with the optimization by Levenberg-Marquardt (table 7, table 7).

[4] = General cytotoxicity test on HepG2 cells; assay type: cell-based; details: human, HepG2 cells; 72 h incubation; 200 to 0.78 µM; average values of several tests; read-out: Hep-G2 CC50, mkM
Protocol: Cell viability was assessed using the above method. Table 6. […] The results are presented as average values of activity obtained in several tests.

[5] = 120 h incubation, average values of several tests

Structure (SMILES): O=C(C1CN(c2ccc3ncn(-c4ccc(-c5cn[nH]c5)cc4)c3c2)C1)N1CCOCC1 [CDK8-1-4, (1-(1-(4-(1H-pyrazol-4-yl)phenyl)-1H-benzo[d]imidazol-6-yl)azetidin-3-yl) (morpholino)methanone]
- Stability in SGF, % [1]: 98.2%
- Stability in blood plasma, % [2]: 100%
- microsomal CLint at 10 µM [3]: 18.8 µL/min/mg
- IC50 (MV4-11; [5]): 0.7 µM
- CC50 at 72 h [4]: > 100 µM

Structure (SMILES): COC(=O)c1ccc(-n2cnc3c(F)cc(N4CC(C(=O)Nc5ccccc5)C4)cc32)cc1 [CDK8-1-7E, Methyl 4-(6-(3-(phenylcarbamoyl)azetidin-1-yl)-4-fluoro-1H-benzo[d]imidazol-1-yl)benzoate]
- IC50 (MV4-11; [5]): > 2.5 µM
- CC50 at 72 h [4]: > 100 µM

Structure (SMILES): COc1ccc(-n2cnc3ccc(N4CC(C(=O)N5CCOCC5)C4)cc32)cc1 [CDK8-1-12, (1-(1-(4-Methoxyphenyl)-1H-benzo[d]imidazol-6-yl)azetidin-3-yl)(morpholino) methanone]
- Stability in SGF, % [1]: 98.1%
- Stability in blood plasma, % [2]: 98%
- microsomal CLint at 10 µM [3]: 3 µL/min/mg
- IC50 (MV4-11; [5]): 3.38 µM
- CC50 at 72 h [4]: > 100 µM

Structure (SMILES): Cn1cc(-c2ccc(-n3cnc4ccc(N5CC(C(=O)N6CCOCC6)C5)c(F)c43)cc2)cn1 [CDK8-1-20, (1-(1-(4-(1-methyl-1H-pyrazol-4-yl)phenyl)-7-fluoro-1H-benzo[d]imidazol-6-yl)azetidin-3-yl) (morpholino)methanone]
- Stability in SGF, % [1]: 99.4%
- Stability in blood plasma, % [2]: 100%
- microsomal CLint at 10 µM [3]: 12.4 µL/min/mg
- IC50 (MV4-11; [5]): > 1 µM
- CC50 at 72 h [4]: > 200 µM

Structure (SMILES): Cn1cc(-c2ccc(-c3cncc4ncc(C(=O)N5CC[C@@H](O)C5)cc34)cc2)cn1 [CDK8-3-4, (R)-(3-Hydroxypyrrolidin-1-yl) (5-(4-(1-methyl-1H-pyrazol-4-yl)phenyl)-1,7-naphthyridin-3-yl)methanone]
- Stability in SGF, % [1]: 100%
- Stability in blood plasma, % [2]: 100%
- IC50 (MV4-11; [5]): 7.51 µM
- CC50 at 72 h [4]: 76.4 µM

Structure (SMILES): CN1CCN(C(=O)c2cnc3cncc(-c4ccc(N(C)C)cc4)c3c2)CC1 [CDK8-3-8, (5-(4-(Dimethylamino)phenyl)-1,7-naphthyridin-3-yl)(4-methylpiperazin-1-yl) methanone]
- Stability in SGF, % [1]: 95.4%
- Stability in blood plasma, % [2]: 98%
- microsomal CLint at 10 µM [3]: 18 µL/min/mg
- IC50 (MV4-11; [5]): 7.52 µM
- CC50 at 72 h [4]: > 200 µM

Structure (SMILES): Cn1cc(-c2ccc(-c3cncc4ncc(N5CC(C(=O)N6CCOCC6)C5)cc34)cc2)cn1 [CDK8-3-9, (1-(5-(4-(1-Methyl-1H-pyrazol-4-yl)phenyl)-1,7-naphthyridin-3-yl)azetidin-3-yl) (morpholino)methanone]
- Stability in SGF, % [1]: 100%
- Stability in blood plasma, % [2]: 100%
- microsomal CLint at 10 µM [3]: 8.8 µL/min/mg
- IC50 (MV4-11; [5]): 10 µM
- CC50 at 72 h [4]: > 20 µM

Structure (SMILES): Cn1cc(-c2ccc(-c3cncc4ncc(C(=O)N5CCC[C@@H](O)C5)cc34)cc2)cn1 [CDK8-3-20, (R)-3-(Hydroxypiperidin-1-yl)(5-(4-(1-methyl-1H-pyrazol-4-yl)phenyl)-1,7-naphthyridin-3-yl)methanone]
- IC50 (MV4-11): 5.04 µM

Structure (SMILES): CN1CCN(C(=O)c2cnc3cncc(-c4ccc(-c5cnn(C)c5)cc4)c3c2)CC1 [CDK8-3-30, (4-Methylpiperazin-1-yl)(5-(4-(1-methyl-1H-pyrazol-4-yl)phenyl)-1,7-naphthyridin-3-yl)methanone]
- IC50 (MV4-11; [5]): 0.412 µM
- CC50 at 72 h [4]: 100 µM

Structure (SMILES): Cn1cc(-c2ccc(-c3cncc4ncc(C(=O)N5CCOCC5)cc34)cc2)cn1 [CDK8-3-33, (5-(4-(1-Methyl-1H-pyrazol-4-yl)phenyl)-1,7-naphthyridin-3-yl)(morpholino)methanone]
- IC50 (MV4-11; [5]): 2.06 µM
- CC50 at 72 h [4]: 100 µM

Structure (SMILES): CN(C)CCN(C)C(=O)c1cnc2cncc(-c3ccc(-c4cnn(C)c4)cc3)c2c1 [CDK8-3-35, N-(2-(Dimethylamino)ethyl)-N-methyl-5-(4-(1-methyl-1H-pyrazol-4-yl)phenyl)-1,7-naphthyridine-3-carboxamide]
- IC50 (MV4-11; [5]): 1.84 µM
- CC50 at 72 h [4]: 77.4 µM

Structure (SMILES): COCCNC(=O)c1cnc2cncc(-c3ccc(-n4ccnc4)cc3)c2c1 [CDK8-3-41]
- IC50 (MV4-11; [5]): 0.572 µM
- CC50 at 72 h [4]: 200 µM

Structure (SMILES): O=C(c1ccccn1)c1c[nH]c2ncc(-c3ccc(N4CCOCC4)c(O)c3)cc12 [CDK8-4-3, (5-(3-Hydroxy-4-morpholinophenyl)-1H-pyrrolo[2,3-b]pyridin-3-yl) (pyridin-2-yl) methanone]
- Stability in SGF, % [1]: 100%
- Stability in blood plasma, % [2]: 100%
- microsomal CLint at 10 µM [3]: 22 µL/min/mg
- IC50 (MV4-11; [5]): 1.49 µM
- CC50 at 72 h [4]: > 200 µM

Structure (SMILES): CN(C)c1ccc(-c2cnc3[nH]cc(C(=O)c4ccncc4)c3c2)cc1O [CDK8-4-9, (5-(4-(Dimethylamino)-3-hydroxyphenyl)-1H-pyrrolo.[2,3-b]pyridin-3-yl) (pyridin-4-yl)methanone]
- Stability in SGF, % [1]: 99.5%
- Stability in blood plasma, % [2]: 100%
- microsomal CLint at 10 µM [3]: 21.6 µL/min/mg
- IC50 (MV4-11; [5]): 2.1 µM
- CC50 at 72 h [4]: > 200 µM

Structure (SMILES): COc1cc(-c2cnc3[nH]cc(C(=O)c4cccnc4)c3c2)ccc1N(C)C [CDK8-4-25, (5-(4-(Dimethylamino)-3-methoxyphenyl)-1H-pyrrolo[2,3-b]pyridin-3-yl)(pyridin-3-yl)methanone]
- Stability in SGF, % [1]: 100%
- Stability in blood plasma, % [2]: 100%
- microsomal CLint at 10 µM [3]: 22.2 µL/min/mg
- IC50 (MV4-11; [5]): 0.05 µM
- CC50 at 72 h [4]: 4.7 µM

Structure (SMILES): CN(C)c1ccc(-c2cnc3[nH]cc(C(=O)c4cccnc4)c3c2)c(C#N)c1 [CDK8-4-26, 5-(Dimethylamino)-2-(3-nicotinoyl-1H-pyrrolo[2,3-b]pyridin-5-yl)benzonitrile]
- Stability in SGF, % [1]: 100%
- Stability in blood plasma, % [2]: 100%
- microsomal CLint at 10 µM [3]: 17.6 µL/min/mg
- IC50 (MV4-11; [5]): 1.28 µM
- CC50 at 72 h [4]: > 100 µM

Structure (SMILES): CN1CCN(Cc2ccc(-c3ccnc4ccc(N5CCC(C)(C(N)=O)CC5)cc34)cc2)CC1 [CDK8-6-3, 4-Methyl-1-(4-(4-((4-methylpiperazin-1-yl)methyl)phenyl)quinolin-6-yl) piperidine-4-carboxamide]
- Stability in SGF, % [1]: 100%
- microsomal CLint at 10 µM [3]: 18.6 µL/min/mg
- IC50 (MV4-11; [5]): 3.18 µM
- CC50 at 72 h [4]: > 60 µM

Structure (SMILES): COCCOC(=O)c1cnc2cncc(-c3ccc(-c4cnn(C)c4)cc3)c2c1 [CDK8_3_28, 2-Methoxyethyl-5-[4-(methyl-1-H-pyrazol-4-yl)phenyl]-1,7-naphthyridine-3-carboxylate]
- IC50 (MV4-11; [5]): 0.871 µM
- CC50 at 72 h [4]: 48.4 µM
